What was measured:
[1] = excess molar enthalpy (molar enthalpy of mixing); xn = mol fraction of the nth substance listed; details: 298.15 K, 101 kPa, Liquid, isothermal titration calorimeter
[2] = 298.15 K; 101.33 kPa; Liquid; Vibrating tube method

CCCCCC(=O)O [hexanoic acid] + CN(C)C=O
[1]
Details | excess molar enthalpy [kcal/mol]
x2 = 0.048 | -0.0576
x2 = 0.092 | -0.11
x2 = 0.132 | -0.158
x2 = 0.169 | -0.202
x2 = 0.203 | -0.243
x2 = 0.24 | -0.288
x2 = 0.274 | -0.328
x2 = 0.304 | -0.363
x2 = 0.333 | -0.394
x2 = 0.359 | -0.42
x2 = 0.383 | -0.442
x2 = 0.412 | -0.467
x2 = 0.439 | -0.484
x2 = 0.464 | -0.496
x2 = 0.486 | -0.503
x2 = 0.502 | -0.506
x2 = 0.516 | -0.506
x2 = 0.53 | -0.505
x2 = 0.543 | -0.503
x2 = 0.556 | -0.499
x2 = 0.568 | -0.494
x2 = 0.579 | -0.489
x2 = 0.589 | -0.483
x2 = 0.602 | -0.475
x2 = 0.613 | -0.467
x2 = 0.625 | -0.458
x2 = 0.635 | -0.449
x2 = 0.645 | -0.44
x2 = 0.656 | -0.43
x2 = 0.666 | -0.42
x2 = 0.676 | -0.409
x2 = 0.685 | -0.4
x2 = 0.694 | -0.39
x2 = 0.702 | -0.381
x2 = 0.71 | -0.372
x2 = 0.718 | -0.363
x2 = 0.726 | -0.352
x2 = 0.735 | -0.342
x2 = 0.743 | -0.332
x2 = 0.75 | -0.323
x2 = 0.757 | -0.314
x2 = 0.764 | -0.306
x2 = 0.77 | -0.298
x2 = 0.776 | -0.291
x2 = 0.782 | -0.283
x2 = 0.789 | -0.275
x2 = 0.794 | -0.268
x2 = 0.799 | -0.261
x2 = 0.812 | -0.241
x2 = 0.824 | -0.226
x2 = 0.836 | -0.21
x2 = 0.849 | -0.194
x2 = 0.862 | -0.177
x2 = 0.875 | -0.159
x2 = 0.889 | -0.142
x2 = 0.903 | -0.124
x2 = 0.916 | -0.107
x2 = 0.929 | -0.0906
x2 = 0.942 | -0.0736
x2 = 0.956 | -0.0557
x2 = 0.97 | -0.0373
x2 = 0.985 | -0.0186

CCCCCC(=O)O [hexanoic acid] + C[S+](C)[O-]
[1]
Details | excess molar enthalpy [kcal/mol]
x2 = 0.042 | -0.0478
x2 = 0.081 | -0.0963
x2 = 0.117 | -0.144
x2 = 0.15 | -0.189
x2 = 0.181 | -0.233
x2 = 0.209 | -0.275
x2 = 0.241 | -0.322
x2 = 0.271 | -0.365
x2 = 0.298 | -0.405
x2 = 0.323 | -0.441
x2 = 0.346 | -0.473
x2 = 0.369 | -0.502
x2 = 0.38 | -0.514
x2 = 0.388 | -0.523
x2 = 0.397 | -0.533
x2 = 0.406 | -0.541
x2 = 0.415 | -0.55
x2 = 0.425 | -0.557
x2 = 0.436 | -0.565
x2 = 0.447 | -0.571
x2 = 0.457 | -0.575
x2 = 0.467 | -0.579
x2 = 0.477 | -0.582
x2 = 0.488 | -0.583
x2 = 0.498 | -0.582
x2 = 0.508 | -0.58
x2 = 0.519 | -0.577
x2 = 0.53 | -0.572
x2 = 0.541 | -0.564
x2 = 0.553 | -0.556
x2 = 0.563 | -0.547
x2 = 0.574 | -0.537
x2 = 0.585 | -0.525
x2 = 0.596 | -0.512
x2 = 0.608 | -0.497
x2 = 0.62 | -0.482
x2 = 0.631 | -0.468
x2 = 0.642 | -0.452
x2 = 0.653 | -0.436
x2 = 0.665 | -0.419
x2 = 0.677 | -0.401
x2 = 0.69 | -0.382
x2 = 0.701 | -0.366
x2 = 0.712 | -0.349
x2 = 0.724 | -0.332
x2 = 0.736 | -0.314
x2 = 0.748 | -0.296
x2 = 0.761 | -0.277
x2 = 0.772 | -0.261
x2 = 0.784 | -0.244
x2 = 0.796 | -0.227
x2 = 0.808 | -0.209
x2 = 0.821 | -0.192
x2 = 0.834 | -0.174
x2 = 0.846 | -0.159
x2 = 0.858 | -0.143
x2 = 0.87 | -0.128
x2 = 0.883 | -0.112
x2 = 0.896 | -0.097
x2 = 0.91 | -0.0844
x2 = 0.922 | -0.0691
x2 = 0.934 | -0.0564
x2 = 0.943 | -0.0442
x2 = 0.959 | -0.0323
x2 = 0.973 | -0.0208
x2 = 0.986 | -0.01

CCCCCCCCO [octan-1-ol]
Details | mass density [kg/m3]
[2] | 821.67

CCCCCCCC(=O)O [octanoic acid]
Details | mass density [kg/m3]
[2] | 906.02

CCCCCCCC(=O)O [octanoic acid] + CCCCCCO
[1]
Details | excess molar enthalpy [kcal/mol]
x2 = 0.038 | 0.0373
x2 = 0.074 | 0.065
x2 = 0.106 | 0.0868
x2 = 0.137 | 0.105
x2 = 0.167 | 0.12
x2 = 0.18 | 0.132
x2 = 0.186 | 0.135
x2 = 0.193 | 0.138
x2 = 0.201 | 0.141
x2 = 0.209 | 0.144
x2 = 0.218 | 0.147
x2 = 0.228 | 0.151
x2 = 0.239 | 0.154
x2 = 0.251 | 0.157
x2 = 0.261 | 0.16
x2 = 0.273 | 0.162
x2 = 0.286 | 0.165
x2 = 0.3 | 0.167
x2 = 0.31 | 0.169
x2 = 0.322 | 0.17
x2 = 0.334 | 0.172
x2 = 0.347 | 0.173
x2 = 0.361 | 0.174
x2 = 0.377 | 0.175
x2 = 0.394 | 0.176
x2 = 0.407 | 0.176
x2 = 0.422 | 0.175
x2 = 0.437 | 0.175
x2 = 0.454 | 0.174
x2 = 0.472 | 0.173
x2 = 0.492 | 0.171
x2 = 0.508 | 0.168
x2 = 0.526 | 0.166
x2 = 0.544 | 0.163
x2 = 0.564 | 0.158
x2 = 0.586 | 0.154
x2 = 0.607 | 0.148
x2 = 0.629 | 0.143
x2 = 0.65 | 0.137
x2 = 0.672 | 0.13
x2 = 0.696 | 0.123
x2 = 0.722 | 0.114
x2 = 0.749 | 0.105
x2 = 0.773 | 0.0966
x2 = 0.798 | 0.0872
x2 = 0.825 | 0.0765
x2 = 0.853 | 0.0645
x2 = 0.884 | 0.0528
x2 = 0.91 | 0.0409
x2 = 0.938 | 0.0282
x2 = 0.968 | 0.0146

From the NIST ThermoML archive (doi:10.1016/j.jct.2011.07.018)
